Assays:
[1] = tested on: thin sections of petiole, pedicle, peduncle and rachis explants of Jatropha curcas; assay: Shoot bud induction directly from thin sections of explants (direct organogenesis); assay type: cell-based; conditions: only BA and Kn alone in the medium
Procedure: The petiole from 2nd to 4th leaf and pedicle, peduncle and rachis from inflorescence before the onset of flowering were selected as explant for the present study. Explants were initially washed in running tap water for 5 min and followed by wash in chlorohexidine surgical wash (two drops in 100 ml of distilled water) for 10 min to remove the adhering particles on the surface. The explants were surface sterilized in 0.1% HgCl2 for 10 min followed by 3 washes using sterilized distilled water.
The chemicals used in the present study were purchased from Duchefa Biochemie, Haarlem, The Netherlands and Sigma Aldrich, Inc., St Louis, USA. The culture media composed of MS basal salts, B5 vitamins, 3% sucrose and 0.8% agar as solidifying agent. The pH of the media is adjusted to 5.6-5.8 before autoclaving. All the cultures were incubated at 25±2° C. with 16 hr light/8 hr dark photoperiod conditions at a light intensity of 150 μEm^−2s^−1. The culture conditions are same throughout the stages of organogenesis.
The thin sections of all the explants (petiole, pedicle, peduncle and rachis) and the calli initiated from different explants (petiole, pedicle, […]; […]).
Thin sections of explants placed on shoot induction medium expanded and bended towards up and started to produce adventitious buds from the explants within 2 weeks. […]

[2] = tested on: elongated shoots of Jatropha curcas; assay: Maturation of elongated shoots on maturation medium; assay type: cell-based; conditions: BA present in maturation medium; abnormal shoot production and in vitro flowering
Procedure: The chemicals used in the present study were purchased from Duchefa Biochemie, Haarlem, The Netherlands and Sigma Aldrich, Inc., St Louis, USA. The culture media composed of MS basal salts, B5 vitamins, 3% sucrose and 0.8% agar as solidifying agent. The pH of the media is adjusted to 5.6-5.8 before autoclaving. All the cultures were incubated at 25±2° C. with 16 hr light/8 hr dark photoperiod conditions at a light intensity of 150 μEm^−2s^−1. The culture conditions are same throughout the stages of organogenesis. […] Elongated shoots were separated from the clump and cultured on the Maturation medium containing Kn (1.17 μM), AdSO4 (135.75 μM), GA3 (0.73 μM) IBA (0.49 μM) and casein hydrolysate (100 mg/l). Well elongated shoots were separated carefully from the clumps and transferred to maturation medium to induce physiological maturity. Most of the shoots culture in the maturation medium reached maturity within 3 weeks whereas some shoots still need additional 3 weeks and were cultured in the same medium to bring physiological maturity.

[3] = tested on: petiole explant of Jatropha curcas; conditions: medium containing 2.27 μM TDZ; Kumar et al. (2011b); cited from earlier work

SMILES | effect on shoot bud induction from the tested explants [1] | effect of presence in maturation medium on shoot maturation [2] | average shoots per 0.5 cm length petiole explant [3] | response with petiole explant [3]
c1ccc(CNc2ncnc3nc[nH]c23)cc1 [BA, 6-benzylaminopurine] | no effect | hindered maturation | – | –
c1coc(CNc2ncnc3[nH]cnc23)c1 [Kn, kinetin] | no effect | – | – | –
O=C(Nc1ccccc1)Nc1cnns1 [TDZ, thidiazuron] | – | – | 4.98 shoots per explant | 57.61%

Reference: patent US9699976B2, “Direct and indirect organogenesis of Jatropha” (TEMASEK LIFE SCIENCES LABORATORY LTD., priority 2012, dated 2017)
